Measurements: US12377104B1, “Methods for treating a fatty liver disease” (Madrigal Pharmaceuticals, Inc., priority 2024, dated 2025)

Test system: NASH patients
Experiment: MAESTRO-NASH: efficacy by baseline body weight and BMI
Assay type: in vivo, human
Details: for ≥30% Reduction in MRI-PDFF at Week 52, Assessment (%) / ≥120% Increase in SHBG at Week 52, Assessment (%): post hoc
Protocol: In the MAESTRO-NASH study, randomization to 80 mg and 100 mg doses was equal across all body weights. Analyses were conducted to provide additional evidence of a relationship between resmetirom dose, baseline body weight and body mass index (BMI), and safety/efficacy readouts. […] The only variable that determined exposure to resmetirom in the NASH population was body weight. […] Study median body weight was 100 kg. […] et al. (2024). CAP was stable over time, both doses showing a similar durable response (FIG. 30B).

CC(C)c1cc(Oc2c(Cl)cc(-n3nc(C#N)c(=O)[nH]c3=O)cc2Cl)n[nH]c1=O [Resmetirom, 2-(3,5-dichloro-4-((5-isopropyl-6-oxo-1,6-dihydropyridazin-3-yl)oxy)phenyl)-3,5-dioxo-2,3,4,5-tetrahydro-1,2,4-triazine-6-carbonitrile]
Discontinued Study Prior to Week 52: number (80 mg, 80-<90 kg): 6
Discontinued Study Prior to Week 52: percentage (in parentheses) (80 mg, 80-<90 kg): (10.3)
Week 52 MITT Consensus Fibrosis Improvement Responder: number (80 mg, 80-<90 kg): 20
Week 52 MITT Consensus Fibrosis Improvement Responder: percentage (in parentheses) (80 mg, 80-<90 kg): (34.5)
Week 52 MITT Consensus NASH Resolution Responder: number (80 mg, 80-<90 kg): 17
Week 52 MITT Consensus NASH Resolution Responder: percentage (in parentheses) (80 mg, 80-<90 kg): (29.3)
Week 52 Paired Biopsies Consensus Fibrosis Improvement Responder: number (80 mg, 80-<90 kg): 20
Week 52 Paired Biopsies Consensus Fibrosis Improvement Responder: percentage (in parentheses) (80 mg, 80-<90 kg): (40.8)
Week 52 Paired Biopsies Consensus NASH Resolution Responder: number (80 mg, 80-<90 kg): 17
Week 52 Paired Biopsies Consensus NASH Resolution Responder: percentage (in parentheses) (80 mg, 80-<90 kg): (34.7)
≥30% reduction in MRI-PDFF at Week 52: number of patients (80 mg, 80-<90 kg): 28
≥30% reduction in MRI-PDFF at Week 52: percentage of patients (in parentheses) (80 mg, 80-<90 kg): (63.6)
≥120% increase in SHBG at Week 52: number of patients (80 mg, 80-<90 kg): 30
≥120% increase in SHBG at Week 52: percentage of patients (in parentheses) (80 mg, 80-<90 kg): (56.6)
Discontinued Study Prior to Week 52: number (80 mg, 90-<100 kg): 6
Discontinued Study Prior to Week 52: percentage (in parentheses) (80 mg, 90-<100 kg): (10.2)
Week 52 MITT Consensus Fibrosis Improvement Responder: number (80 mg, 90-<100 kg): 15
Week 52 MITT Consensus Fibrosis Improvement Responder: percentage (in parentheses) (80 mg, 90-<100 kg): (25.4)
Week 52 MITT Consensus NASH Resolution Responder: number (80 mg, 90-<100 kg): 15
Week 52 MITT Consensus NASH Resolution Responder: percentage (in parentheses) (80 mg, 90-<100 kg): (25.4)
Week 52 Paired Biopsies Consensus Fibrosis Improvement Responder: number (80 mg, 90-<100 kg): 15
Week 52 Paired Biopsies Consensus Fibrosis Improvement Responder: percentage (in parentheses) (80 mg, 90-<100 kg): (30.6)
Week 52 Paired Biopsies Consensus NASH Resolution Responder: number (80 mg, 90-<100 kg): 15
Week 52 Paired Biopsies Consensus NASH Resolution Responder: percentage (in parentheses) (80 mg, 90-<100 kg): (30.6)
≥30% reduction in MRI-PDFF at Week 52: number of patients (80 mg, 90-<100 kg): 28
≥30% reduction in MRI-PDFF at Week 52: percentage of patients (in parentheses) (80 mg, 90-<100 kg): (62.2)
≥120% increase in SHBG at Week 52: number of patients (80 mg, 90-<100 kg): 28
≥120% increase in SHBG at Week 52: percentage of patients (in parentheses) (80 mg, 90-<100 kg): (52.8)
Discontinued Study Prior to Week 52: number (80 mg, 100-<110 kg): 3
Discontinued Study Prior to Week 52: percentage (in parentheses) (80 mg, 100-<110 kg): (6.5)
Week 52 MITT Consensus Fibrosis Improvement Responder: number (80 mg, 100-<110 kg): 8
Week 52 MITT Consensus Fibrosis Improvement Responder: percentage (in parentheses) (80 mg, 100-<110 kg): (17.4)
Week 52 MITT Consensus NASH Resolution Responder: number (80 mg, 100-<110 kg): 13
Week 52 MITT Consensus NASH Resolution Responder: percentage (in parentheses) (80 mg, 100-<110 kg): (28.3)
Week 52 Paired Biopsies Consensus Fibrosis Improvement Responder: number (80 mg, 100-<110 kg): 8
Week 52 Paired Biopsies Consensus Fibrosis Improvement Responder: percentage (in parentheses) (80 mg, 100-<110 kg): (22.2)
Week 52 Paired Biopsies Consensus NASH Resolution Responder: number (80 mg, 100-<110 kg): 13
Week 52 Paired Biopsies Consensus NASH Resolution Responder: percentage (in parentheses) (80 mg, 100-<110 kg): (36.1)
≥30% reduction in MRI-PDFF at Week 52: number of patients (80 mg, 100-<110 kg): 23
≥30% reduction in MRI-PDFF at Week 52: percentage of patients (in parentheses) (80 mg, 100-<110 kg): (67.6)
≥120% increase in SHBG at Week 52: number of patients (80 mg, 100-<110 kg): 14
≥120% increase in SHBG at Week 52: percentage of patients (in parentheses) (80 mg, 100-<110 kg): (34.1)
Discontinued Study Prior to Week 52: number (80 mg, <80 kg): 6
Discontinued Study Prior to Week 52: percentage (in parentheses) (80 mg, <80 kg): (10.0)
Week 52 MITT Consensus Fibrosis Improvement Responder: number (80 mg, <80 kg): 17
Week 52 MITT Consensus Fibrosis Improvement Responder: percentage (in parentheses) (80 mg, <80 kg): (28.3)
Week 52 MITT Consensus NASH Resolution Responder: number (80 mg, <80 kg): 15
Week 52 MITT Consensus NASH Resolution Responder: percentage (in parentheses) (80 mg, <80 kg): (25.0)
Week 52 Paired Biopsies Consensus Fibrosis Improvement Responder: number (80 mg, <80 kg): 17
Week 52 Paired Biopsies Consensus Fibrosis Improvement Responder: percentage (in parentheses) (80 mg, <80 kg): (34.7)
Week 52 Paired Biopsies Consensus NASH Resolution Responder: number (80 mg, <80 kg): 15
Week 52 Paired Biopsies Consensus NASH Resolution Responder: percentage (in parentheses) (80 mg, <80 kg): (30.6)
≥30% reduction in MRI-PDFF at Week 52: number of patients (80 mg, <80 kg): 34
≥30% reduction in MRI-PDFF at Week 52: percentage of patients (in parentheses) (80 mg, <80 kg): (73.9)
≥120% increase in SHBG at Week 52: number of patients (80 mg, <80 kg): 39
≥120% increase in SHBG at Week 52: percentage of patients (in parentheses) (80 mg, <80 kg): (72.2)
≥30% Reduction in MRI-PDFF at Week 52, Assessment (%) (80 mg, body weight >100 kg): 56.7%
≥120% Increase in SHBG at Week 52, Assessment (%) (80 mg, body weight >100 kg): 29.6%
≥30% Reduction in MRI-PDFF at Week 52, Assessment (%) (80 mg, body weight ≤100 kg): 66.9%
≥120% Increase in SHBG at Week 52, Assessment (%) (80 mg, body weight ≤100 kg): 60.9%
Discontinued Study Prior to Week 52: number (80 mg, ≥110 kg): 19
Discontinued Study Prior to Week 52: percentage (in parentheses) (80 mg, ≥110 kg): (19.2)
Week 52 MITT Consensus Fibrosis Improvement Responder: number (80 mg, ≥110 kg): 17
Week 52 MITT Consensus Fibrosis Improvement Responder: percentage (in parentheses) (80 mg, ≥110 kg): (17.2)
Week 52 MITT Consensus NASH Resolution Responder: number (80 mg, ≥110 kg): 17
Week 52 MITT Consensus NASH Resolution Responder: percentage (in parentheses) (80 mg, ≥110 kg): (17.2)
Week 52 Paired Biopsies Consensus Fibrosis Improvement Responder: number (80 mg, ≥110 kg): 17
Week 52 Paired Biopsies Consensus Fibrosis Improvement Responder: percentage (in parentheses) (80 mg, ≥110 kg): (22.7)
Week 52 Paired Biopsies Consensus NASH Resolution Responder: number (80 mg, ≥110 kg): 17
Week 52 Paired Biopsies Consensus NASH Resolution Responder: percentage (in parentheses) (80 mg, ≥110 kg): (22.7)
≥30% reduction in MRI-PDFF at Week 52: number of patients (80 mg, ≥110 kg): 33
≥30% reduction in MRI-PDFF at Week 52: percentage of patients (in parentheses) (80 mg, ≥110 kg): (51.6)
≥120% increase in SHBG at Week 52: number of patients (80 mg, ≥110 kg): 21
≥120% increase in SHBG at Week 52: percentage of patients (in parentheses) (80 mg, ≥110 kg): (28.0)
Discontinued Study Prior to Week 52: number (100 mg, 80-<90 kg): 4
Discontinued Study Prior to Week 52: percentage (in parentheses) (100 mg, 80-<90 kg): (8.2)
Week 52 MITT Consensus Fibrosis Improvement Responder: number (100 mg, 80-<90 kg): 13
Week 52 MITT Consensus Fibrosis Improvement Responder: percentage (in parentheses) (100 mg, 80-<90 kg): (26.5)
Week 52 MITT Consensus NASH Resolution Responder: number (100 mg, 80-<90 kg): 16
Week 52 MITT Consensus NASH Resolution Responder: percentage (in parentheses) (100 mg, 80-<90 kg): (32.7)
Week 52 Paired Biopsies Consensus Fibrosis Improvement Responder: number (100 mg, 80-<90 kg): 13
Week 52 Paired Biopsies Consensus Fibrosis Improvement Responder: percentage (in parentheses) (100 mg, 80-<90 kg): (31.7)
